Laboratory results: patent US8003698B2, “Site-specific inhibitors of histone methyltransferase (HMTASE) and process of preparation thereof” (Jawaharlal Nehru Centre for Advanced Scientific Research, priority 2006, dated 2011)
Like-named read-outs stand apart in the source and are kept apart here.

Legend:
[1] = molecular target: histone acetyltransferase p300 (Homo sapiens, UniProt Q09472); assay: Filterbinding and gel (fluorography) HAT assay against p300; format: biochemical
Source text: (§1) FIG. 1a: Effect of LTK20 on Histone Modifying Enzymes (Filterbinding Assay) Filterbinding Assay of LTK20 carried out with the Histone acetyltransferases p300, PCAF and Histone methyltransferases CARM1, G9a. Lane 1—histones alone, lane 2—Enzyme control, lane 3—DMSO control, lane 4-5, LTK20 in increasing concentration.
(§2) FIG. 1b: Effect of LTK20 on Histone Modifying Enzymes (Fluorography) Gel Assay of LTK20 carried out with Histone acetyltransferases p300, PCAF and Histone methyltransferases CARM1, G9a. Lane 1—histones alone, lane 2—Enzyme control, lane 3—DMSO control, lane 4 & 5—LTK20 in increasing concentration.
(§3) (2,3,7,8-TETRAHYDROXY[1]BENZOPYRANO[5,4,3(DE)[1]BENZOPYRAN5,10-DIONE) was identified as a specific inhibitor of the arginine methyltransferase CARM1 with an IC50 of 20 μM, both by filterbinding (FIG. 1a) and fluorography assays (FIG. 1b).

CARM1 [2] = molecular target: T1, CARM1 (Homo sapiens, UniProt Q86X55); assay: Kinetic analysis of the pattern of inhibition of CARM1 methylation of histone H3; format: biochemical; settings: recombinant histone H3 and tritiated SAM varied; two inhibitor concentrations
T1 sequence (Q86X55 1-608): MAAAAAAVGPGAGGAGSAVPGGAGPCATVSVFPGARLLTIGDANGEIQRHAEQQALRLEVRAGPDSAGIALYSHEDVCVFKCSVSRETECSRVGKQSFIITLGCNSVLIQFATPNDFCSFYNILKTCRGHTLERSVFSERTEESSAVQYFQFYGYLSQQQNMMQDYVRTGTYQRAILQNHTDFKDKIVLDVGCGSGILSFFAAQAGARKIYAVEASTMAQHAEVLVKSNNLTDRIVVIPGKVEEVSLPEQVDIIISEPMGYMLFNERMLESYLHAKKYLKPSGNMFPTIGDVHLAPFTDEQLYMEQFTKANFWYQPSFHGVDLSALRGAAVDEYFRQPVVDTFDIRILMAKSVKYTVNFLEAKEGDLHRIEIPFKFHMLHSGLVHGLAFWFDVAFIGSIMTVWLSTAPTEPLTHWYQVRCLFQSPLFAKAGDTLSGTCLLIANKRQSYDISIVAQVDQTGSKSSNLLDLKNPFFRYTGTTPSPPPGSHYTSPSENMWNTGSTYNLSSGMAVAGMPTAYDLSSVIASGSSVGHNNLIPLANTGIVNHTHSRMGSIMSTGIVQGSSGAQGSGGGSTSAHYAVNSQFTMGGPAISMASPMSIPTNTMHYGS
Protocol: Since the inhibitor is specific to CARM1 mediated methylation of histones which is directed to the histone H3, histone H3 was used as the substrate for the kinetic analysis. Initially, the inhibition was confirmed using the recombinant histone as the substrate. CARM1 methylation reaction was carried out using increasing concentration of histone H3 and the methyl group donor, tritiated SAM keeping the enzyme concentration constant. Two different inhibitor concentrations were assayed.

[3] = molecular target: T2, arginine methyltransferase CARM1 (Homo sapiens, UniProt Q86X55); assay: Filterbinding and gel (fluorography) HMTase assay against CARM1; format: biochemical
T2 sequence (Q86X55 1-608): T1 sequence (Q86X55 1-608)
Source text: as §1, §2, §3

[4] = test system: CARM1 methylation sites on histone H3, R17 and R26 in HeLa cells; assay: HeLa cells, western analysis of acid extracted histones; format: cell-based; settings: for Methylation of H3R17: 50 μM, 24 hours
Protocol: (§4) FIGS. 3a and 3b: Preferential Inhibition of CARM1 Mediated Methylation Site-specific inhibition of arginine methylation of histone H3 observed in the presence of LTK20 both in vitro and in vivo. H3R17 and H3R26 are both CARM1 methylation sites on histone H3.
In vivo characterization was done by treating HeLa cells with the molecule at 50 μM concentration for a period of 24 hours, and the acid extracted histones were probed with antibodies against CARM1 methylation sites on histone H3, R17 and R26.

CARM1 [5] = molecular target: T1, CARM1; assay: Isothermal Calorimetric Titration with enzyme CARM1; format: binding; settings: enzyme in cell titrated against inhibitor
Source text: (§5) The pattern of inhibition is uncompetitive indicating the mode of inhibition is via the Enzyme-Substrate complex, the binding of the inhibitor has been characterized by Isothermal Calorimetric Titration wherein either the substrate (histone H3) or enzyme (CARM1) was taken in the cell and titrated against the inhibitor (2,3,7,8TETRAHYDROXY[1]BENZOPYRANO[5,4,3(DE)[1]BENZOPYRAN5,10-DIONE).

histone H3 = histone H3 (Homo sapiens, UniProt P68431); assay: Isothermal Calorimetric Titration with substrate histone H3; format: binding; settings: substrate in cell titrated against inhibitor
Source text: FIG. 2: Binding Isotherm of Histone H3 with LTK20 Isothermal Calorimetric Titration carried out with the protein histone H3 and the ligand LTK20, which is the inhibitor.
as §5

[6] = molecular target: CARM1 methylation sites on histone H3, R17 and R26 (Homo sapiens, UniProt P68431); assay: In vitro CARM1 methylation reaction, western analysis with site-specific antibodies; format: biochemical
Protocol: as §4
In vitro CARM1 methylation reaction was carried out in the presence or absence of inhibitors, and probed with antibodies against the specific CARM1 methylation sites on histone H3, R17 and R26.

[7] = molecular target: T3, lysine methyltransferase G9a (Homo sapiens, UniProt Q96KQ7); assay: Filterbinding and gel (fluorography) HMTase assay against G9a; format: biochemical
T3 sequence (Q96KQ7 1-1210): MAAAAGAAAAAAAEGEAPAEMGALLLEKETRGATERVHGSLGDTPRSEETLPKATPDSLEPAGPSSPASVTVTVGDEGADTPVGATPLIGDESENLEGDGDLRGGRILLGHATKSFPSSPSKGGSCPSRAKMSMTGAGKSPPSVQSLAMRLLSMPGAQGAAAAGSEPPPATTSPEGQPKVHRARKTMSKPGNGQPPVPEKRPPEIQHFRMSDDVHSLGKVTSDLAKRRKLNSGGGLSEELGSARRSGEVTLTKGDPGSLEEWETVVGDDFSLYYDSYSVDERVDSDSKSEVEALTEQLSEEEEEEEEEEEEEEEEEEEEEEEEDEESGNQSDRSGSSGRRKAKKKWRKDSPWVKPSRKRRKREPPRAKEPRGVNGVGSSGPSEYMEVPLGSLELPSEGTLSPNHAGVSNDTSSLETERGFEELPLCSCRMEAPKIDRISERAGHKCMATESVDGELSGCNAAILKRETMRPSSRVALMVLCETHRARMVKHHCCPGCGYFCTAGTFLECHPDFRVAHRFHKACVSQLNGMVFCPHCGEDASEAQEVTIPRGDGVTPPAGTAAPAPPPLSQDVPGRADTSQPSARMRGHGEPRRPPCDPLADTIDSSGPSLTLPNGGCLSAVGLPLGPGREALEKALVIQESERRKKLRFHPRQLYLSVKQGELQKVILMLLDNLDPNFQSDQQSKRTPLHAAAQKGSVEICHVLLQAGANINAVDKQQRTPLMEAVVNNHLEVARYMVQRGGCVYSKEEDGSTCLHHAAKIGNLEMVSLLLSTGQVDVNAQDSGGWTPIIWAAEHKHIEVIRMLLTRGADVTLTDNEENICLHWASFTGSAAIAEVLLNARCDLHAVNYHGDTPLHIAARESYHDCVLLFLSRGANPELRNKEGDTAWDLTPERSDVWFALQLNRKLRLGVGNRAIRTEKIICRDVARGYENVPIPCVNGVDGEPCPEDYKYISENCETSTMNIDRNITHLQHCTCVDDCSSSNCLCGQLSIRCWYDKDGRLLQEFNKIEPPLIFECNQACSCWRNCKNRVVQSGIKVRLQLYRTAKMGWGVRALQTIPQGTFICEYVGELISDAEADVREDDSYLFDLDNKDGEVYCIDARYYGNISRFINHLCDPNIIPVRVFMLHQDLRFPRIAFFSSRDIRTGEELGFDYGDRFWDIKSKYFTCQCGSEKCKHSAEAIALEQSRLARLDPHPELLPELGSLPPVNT
Source text: as §1, §2, §3

[8] = molecular target: histone acetyltransferase PCAF (Homo sapiens, UniProt Q92831); assay: Filterbinding and gel (fluorography) HAT assay against PCAF; format: biochemical
Chain of histone acetyltransferase PCAF (Q92831 whole entry): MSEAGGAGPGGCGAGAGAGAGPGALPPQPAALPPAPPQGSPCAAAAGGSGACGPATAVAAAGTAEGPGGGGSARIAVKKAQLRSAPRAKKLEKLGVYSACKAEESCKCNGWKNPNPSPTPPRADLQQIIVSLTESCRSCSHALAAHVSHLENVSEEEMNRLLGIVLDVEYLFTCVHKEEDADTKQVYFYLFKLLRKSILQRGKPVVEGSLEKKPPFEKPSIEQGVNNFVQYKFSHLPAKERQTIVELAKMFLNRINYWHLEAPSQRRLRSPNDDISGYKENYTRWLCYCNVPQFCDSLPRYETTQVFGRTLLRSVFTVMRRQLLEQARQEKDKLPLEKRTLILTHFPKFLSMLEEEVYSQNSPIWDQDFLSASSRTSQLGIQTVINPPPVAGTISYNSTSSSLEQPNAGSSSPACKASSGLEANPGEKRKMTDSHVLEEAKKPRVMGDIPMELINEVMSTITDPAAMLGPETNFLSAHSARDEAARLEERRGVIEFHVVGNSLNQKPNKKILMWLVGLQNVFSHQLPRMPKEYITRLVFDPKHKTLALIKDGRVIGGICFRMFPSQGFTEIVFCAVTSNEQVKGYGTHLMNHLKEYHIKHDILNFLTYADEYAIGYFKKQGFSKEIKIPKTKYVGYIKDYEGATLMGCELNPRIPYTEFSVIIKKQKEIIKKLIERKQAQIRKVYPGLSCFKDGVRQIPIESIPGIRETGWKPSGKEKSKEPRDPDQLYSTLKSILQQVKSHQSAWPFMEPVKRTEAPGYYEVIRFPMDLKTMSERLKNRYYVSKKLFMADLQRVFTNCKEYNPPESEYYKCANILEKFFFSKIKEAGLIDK
Source text: as §1, §2, §3

U2OS cells = assay: Modulation of p53 and p21 protein levels in U2OS cells by western analysis; format: cell-based; settings: for p21 levels: UV irradiated U2OS cells, vs DMSO control
Source text: FIG. 4: Immunoblot Analysis with p21 Antibody UV irradiated U2OS cells treated with or without inhibitors. The lysate was probed with antibody against p21. p21 levels show an increase in the presence of LTK20 as compared to the DMSO control.
Physiological effect of the inhibitor was characterized by selecting the p53 system, since CARM1 mediated histone methylation is known to cooperatively enhance the transcriptional activation of p53 responsive genes. […] U2OS, which is a p53 positive cell line was used for the assay, and on treatment with molecule at 50 μM concentration for a period of 24 hours, p53 levels were altered. Since, the p53 responsive genes had to be assayed, p21 was selected (there is no apoptosis, therefore the apoptosis genes were not selected). UV irradiated cells were treated with (2,3,7,8-TETRAHYDROXY[1]BENZOPYRANO[5,4,3(DE)[1]BENZOPYRAN5,10-DIONE) for a period of 24 hours and the lysate was probed with antibody against p21. […] This clearly indicates a possible implication of this molecule in the tumor suppressor p53 mediated transcriptional activation.

[9] = test system: CARM1 methylation sites on histone H3, R17 and R26 in HeLa cells; assay: HeLa cells, immunofluorescence analysis; format: cell-based; settings: 50 μM, 24 hours
Protocol: FIGS. 3c and 3d: Immunofluorescence Analysis of LTK20 Treated HeLa Cells
In vivo characterization was done by treating HeLa cells with the molecule at 50 μM concentration for a period of 24 hours, and the cells were probed with antibodies against CARM1 methylation sites on histone H3, R17 and R26 and were visualized by anti rabbit alexa fluor 488 antibody.

[10] = filterbinding, HeLa core histones
[11] = listed as (2,3,7,8-TETRAHYDROXY[1]BENZOPYRANO[5,4,3(DE)[1]BENZOPYRAN5,10-DIONE)

Chain of histone acetyltransferase p300 (Q09472 whole entry): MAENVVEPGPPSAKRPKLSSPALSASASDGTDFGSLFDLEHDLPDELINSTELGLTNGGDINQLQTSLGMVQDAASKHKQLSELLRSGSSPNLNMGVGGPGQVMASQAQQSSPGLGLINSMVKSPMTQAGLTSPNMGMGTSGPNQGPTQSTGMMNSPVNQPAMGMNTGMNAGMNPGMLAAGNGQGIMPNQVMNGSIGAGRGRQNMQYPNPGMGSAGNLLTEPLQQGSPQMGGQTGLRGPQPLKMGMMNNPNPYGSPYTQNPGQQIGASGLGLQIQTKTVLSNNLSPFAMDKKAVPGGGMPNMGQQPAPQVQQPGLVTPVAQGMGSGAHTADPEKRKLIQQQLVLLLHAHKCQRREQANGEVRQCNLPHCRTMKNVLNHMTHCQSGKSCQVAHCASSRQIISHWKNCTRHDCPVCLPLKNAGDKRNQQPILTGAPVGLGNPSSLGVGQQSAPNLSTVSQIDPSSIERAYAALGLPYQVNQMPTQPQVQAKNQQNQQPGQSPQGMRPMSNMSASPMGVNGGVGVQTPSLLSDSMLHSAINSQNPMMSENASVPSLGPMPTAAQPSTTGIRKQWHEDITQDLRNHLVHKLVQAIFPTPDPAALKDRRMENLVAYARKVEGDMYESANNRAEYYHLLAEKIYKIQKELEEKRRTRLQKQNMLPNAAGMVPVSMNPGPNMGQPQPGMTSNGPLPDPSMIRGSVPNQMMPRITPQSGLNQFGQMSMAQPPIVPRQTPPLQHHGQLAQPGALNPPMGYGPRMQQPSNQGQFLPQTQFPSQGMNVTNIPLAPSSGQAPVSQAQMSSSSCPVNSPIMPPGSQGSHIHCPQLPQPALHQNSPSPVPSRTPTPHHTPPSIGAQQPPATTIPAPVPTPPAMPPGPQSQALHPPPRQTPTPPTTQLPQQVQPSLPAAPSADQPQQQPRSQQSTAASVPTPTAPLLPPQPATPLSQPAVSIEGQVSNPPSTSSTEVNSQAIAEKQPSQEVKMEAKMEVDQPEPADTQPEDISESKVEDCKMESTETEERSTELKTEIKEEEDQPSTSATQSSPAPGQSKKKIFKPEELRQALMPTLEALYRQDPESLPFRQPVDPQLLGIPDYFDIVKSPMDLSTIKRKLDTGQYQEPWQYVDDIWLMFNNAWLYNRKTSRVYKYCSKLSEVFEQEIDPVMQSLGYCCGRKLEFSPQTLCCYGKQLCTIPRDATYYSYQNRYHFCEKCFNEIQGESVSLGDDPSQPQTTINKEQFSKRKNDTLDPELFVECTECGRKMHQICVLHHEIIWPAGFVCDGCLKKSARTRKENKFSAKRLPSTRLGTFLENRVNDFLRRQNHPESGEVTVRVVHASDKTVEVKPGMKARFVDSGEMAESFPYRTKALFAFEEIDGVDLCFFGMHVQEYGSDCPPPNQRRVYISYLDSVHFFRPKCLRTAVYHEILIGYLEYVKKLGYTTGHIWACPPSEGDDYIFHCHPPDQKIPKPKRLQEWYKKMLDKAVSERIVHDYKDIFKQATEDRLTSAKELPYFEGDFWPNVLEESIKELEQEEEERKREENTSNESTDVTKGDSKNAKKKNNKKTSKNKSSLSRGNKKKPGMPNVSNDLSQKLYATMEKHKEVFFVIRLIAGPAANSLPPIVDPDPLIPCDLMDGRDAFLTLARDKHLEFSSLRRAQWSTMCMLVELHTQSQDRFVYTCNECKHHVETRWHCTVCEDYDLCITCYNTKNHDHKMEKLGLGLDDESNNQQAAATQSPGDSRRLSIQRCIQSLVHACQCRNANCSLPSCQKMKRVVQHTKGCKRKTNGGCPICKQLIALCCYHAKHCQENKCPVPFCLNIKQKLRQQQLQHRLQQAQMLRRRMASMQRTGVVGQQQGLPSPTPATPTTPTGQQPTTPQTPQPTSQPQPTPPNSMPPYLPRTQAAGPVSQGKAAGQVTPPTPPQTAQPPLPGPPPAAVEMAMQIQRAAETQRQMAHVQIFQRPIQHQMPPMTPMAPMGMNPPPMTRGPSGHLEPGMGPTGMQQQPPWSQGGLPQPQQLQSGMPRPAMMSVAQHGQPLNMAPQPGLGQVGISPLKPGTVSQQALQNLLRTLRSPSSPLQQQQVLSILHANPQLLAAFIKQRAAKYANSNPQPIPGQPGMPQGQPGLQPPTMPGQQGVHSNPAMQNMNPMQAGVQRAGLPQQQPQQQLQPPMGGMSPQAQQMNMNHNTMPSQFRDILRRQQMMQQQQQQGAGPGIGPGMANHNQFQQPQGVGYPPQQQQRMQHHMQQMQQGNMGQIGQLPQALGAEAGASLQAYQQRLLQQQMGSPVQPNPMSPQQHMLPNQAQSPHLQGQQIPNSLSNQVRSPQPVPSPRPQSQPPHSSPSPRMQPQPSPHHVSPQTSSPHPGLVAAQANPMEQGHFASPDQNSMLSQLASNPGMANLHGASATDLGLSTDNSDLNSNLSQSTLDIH

In the case of O=c1oc2c(O)c(O)cc3c(=O)oc4c(O)c(O)cc1c4c23 [LTK20, (2,3,7,8-TETRAHYDROXY[1]BENZOPYRANO [5,4,3(DE)[1]BENZOPYRAN 5,10-DIONE)], the “Effect on p300 activity (filterbinding assay)” value ([1]; filterbinding) is reported as “does not act on other enzymes”, the “Effect on p300 activity (gel assay, fluorography)” value ([1]; fluorography) is reported as “does not act on other enzymes” and the “Pattern of CARM1 methylation inhibition” value (CARM1 [2]) is reported as “uncompetitive”. For the same molecule, the IC50 ([3]; HeLa core histones as substrate, both filterbinding and fluorography assays) was 20 µM, the “Effect on CARM1 activity (filterbinding assay)” value [3, 10] was “inhibits CARM1 activity” and the “Effect on CARM1 activity (gel assay, fluorography)” value ([3]; fluorography) was “inhibits CARM1 activity”. The “Methylation of H3R26” value [4] was “getting methylated”, the “Methylation of H3R17” value [4] was “inhibited” and the “Methylation of H3R17” value [4, 11] was “Site-specific inhibition of H3R17”. The “Binding to CARM1 (ITC)” value (CARM1 [5]) was “no binding of the molecule to the enzyme”, the “Binding to histone H3 (ITC)” value (histone H3) was “fits to the two sequential binding site model” and the “Binding to histone H3 (ITC)” value (histone H3; listed as (2,3,7,8TETRAHYDROXY[1]BENZOPYRANO[5,4,3(DE)[1]BENZOPYRAN5,10-DIONE)) was “binds to the substrate at two sequential binding sites”. For the same molecule, the “Methylation of H3R17” value [6] was “inhibited”, the “Methylation of H3R26” value [6] was “getting methylated” and the “Methylation of H3R17” value [6, 11] was “Site-specific inhibition of H3R17”. For the same molecule, the “Effect on G9a activity (filterbinding assay)” value [7, 10] was “does not act on other enzymes”, the “Effect on G9a activity (gel assay, fluorography)” value ([7]; fluorography) was “does not act on other enzymes” and the “Effect on PCAF activity (filterbinding assay)” value ([8]; filterbinding) was “does not act on other enzymes”. For the same molecule, the “Effect on PCAF activity (gel assay, fluorography)” value ([8]; fluorography) was “does not act on other enzymes”, the Apoptosis (U2OS cells; U2OS cells) was “no apoptosis” and the p53 levels (U2OS cells; U2OS, 50 μM, 24 hours) was “altered”. The p21 levels (U2OS cells; 24 hours) was “increase”, the p21 levels (U2OS cells; 24 hours, listed as (2,3,7,8-TETRAHYDROXY[1]BENZOPYRANO[5,4,3(DE)[1]BENZOPYRAN5,10-DIONE)) was “increase in p21 levels” and the “Methylation of H3R17” value [9] was “Site-specific inhibition of H3R17”.
